Test results taken from ChEMBL document CHEMBL5131391, “One-pot three-component synthesis of novel pyrazolo[3,4-b]pyridines as potent antileukemic agents” (Eur J Med Chem, 2022).
Calls of active or inactive are those of the source. No cut-off for these calls is given here.

What was measured:
K562 = assay: Antiproliferative activity against human K562 cells assessed as reduction in cell viability incubated for 72 hrs by resazurin dye based assay; format: functional; settings: K562, 72 h
ML-2 = assay: Antiproliferative activity against human ML-2 cells assessed as reduction in cell viability incubated for 72 hrs by resazurin dye based assay; format: functional; settings: ML-2, 72 h
RS4-11 [1] = assay: Antiproliferative activity against human RS4-11 cells assessed as reduction in cell viability incubated for 72 hrs by resazurin dye based assay; format: functional; settings: RS4-11, 72 h
CCRF-CEM [2] = assay: Antiproliferative activity against human CCRF-CEM cells assessed as growth inhibition at 10 uM measured after 48 hrs by NCI protocol based SRB assay relative to control; format: functional; settings: read-out: GI
HOP-92 = assay: Antiproliferative activity against human HOP-92 cells assessed as growth inhibition at 10 uM measured after 48 hrs by NCI protocol based SRB assay relative to control; format: functional; settings: read-out: GI
EKVX = assay: Antiproliferative activity against human EKVX cells assessed as growth inhibition at 10 uM measured after 48 hrs by NCI protocol based SRB assay relative to control; format: functional; settings: read-out: GI
NCI-H322M = assay: Antiproliferative activity against human NCI-H322M cells assessed as growth inhibition at 10 uM measured after 48 hrs by NCI protocol based SRB assay relative to control; format: functional; settings: read-out: GI
NCI-H226 = assay: Antiproliferative activity against human NCI-H226 cells assessed as growth inhibition at 10 uM measured after 48 hrs by NCI protocol based SRB assay relative to control; format: functional; settings: read-out: GI
NCI-H23 = assay: Antiproliferative activity against human NCI-H23 cells assessed as growth inhibition at 10 uM measured after 48 hrs by NCI protocol based SRB assay relative to control; format: functional; settings: read-out: GI
HCT-15 = assay: Antiproliferative activity against human HCT-15 cells assessed as growth inhibition at 10 uM measured after 48 hrs by NCI protocol based SRB assay relative to control; format: functional; settings: read-out: GI
SW-620 = assay: Antiproliferative activity against human SW-620 cells assessed as growth inhibition at 10 uM measured after 48 hrs by NCI protocol based SRB assay relative to control; format: functional; settings: read-out: GI
SNB-75 = assay: Antiproliferative activity against human SNB-75 cells assessed as growth inhibition at 10 uM measured after 48 hrs by NCI protocol based SRB assay relative to control; format: functional; settings: read-out: GI
U-251 = assay: Antiproliferative activity against human U-251 cells assessed as growth inhibition at 10 uM measured after 48 hrs by NCI protocol based SRB assay relative to control; format: functional; settings: read-out: GI
M14 = assay: Antiproliferative activity against human M14 cells assessed as growth inhibition at 10 uM measured after 48 hrs by NCI protocol based SRB assay relative to control; format: functional; settings: read-out: GI
LOX IMVI = assay: Antiproliferative activity against human LOX IMVI cells assessed as growth inhibition at 10 uM measured after 48 hrs by NCI protocol based SRB assay relative to control; format: functional; settings: read-out: GI
SK-MEL-2 [3] = assay: Antiproliferative activity against human SK-MEL-2 cells assessed as growth inhibition at 10 uM measured after 48 hrs by NCI protocol based SRB assay relative to control; format: functional; settings: read-out: GI
IGROV-1 = assay: Antiproliferative activity against human IGROV-1 cells assessed as growth inhibition at 10 uM measured after 48 hrs by NCI protocol based SRB assay relative to control; format: functional; settings: read-out: GI
OVCAR-8 = assay: Antiproliferative activity against human OVCAR-8 cells assessed as growth inhibition at 10 uM measured after 48 hrs by NCI protocol based SRB assay relative to control; format: functional; settings: read-out: GI
NCI/ADR-RES [4] = assay: Antiproliferative activity against human NCl/ADR-RES cells assessed as growth inhibition at 10 uM measured after 48 hrs by NCI protocol based SRB assay relative to control; format: functional; settings: read-out: GI
TK-10 [5] = assay: Antiproliferative activity against human TK-10 cells assessed as growth inhibition at 10 uM measured after 48 hrs by NCI protocol based SRB assay relative to control; format: functional; settings: read-out: GI
PC-3 = assay: Antiproliferative activity against human PC-3 cells assessed as growth inhibition at 10 uM measured after 48 hrs by NCI protocol based SRB assay relative to control; format: functional; settings: read-out: GI
T47D = assay: Antiproliferative activity against human T47D cells assessed as growth inhibition at 10 uM measured after 48 hrs by NCI protocol based SRB assay relative to control; format: functional; settings: read-out: GI
Hs-578T = assay: Antiproliferative activity against human Hs-578T cells assessed as growth inhibition at 10 uM measured after 48 hrs by NCI protocol based SRB assay relative to control; format: functional; settings: read-out: GI
CCRF-CEM [6] = assay: Antiproliferative activity against human CEM cells assessed as reduction in cell viability incubated for 72 hrs by resazurin dye based assay; format: functional
KOPN-8 = assay: Antiproliferative activity against human KOPN-8 cells assessed as reduction in cell viability incubated for 72 hrs by resazurin dye based assay; format: functional; settings: KOPN-8, 72 h
RS4-11 [7] = assay: Downregulation of HOXA9 protein expression in human RS4-11 cells at 5 to 20 uM measured after 24 hrs by Western blot analysis; format: functional, cell-based; settings: dose 5-20 µM
SR = assay: Antiproliferative activity against human SR cells assessed as growth inhibition at 10 uM measured after 48 hrs by NCI protocol based SRB assay relative to control; format: functional; settings: read-out: GI
HT-29 = assay: Antiproliferative activity against human HT-29 cells assessed as growth inhibition at 10 uM measured after 48 hrs by NCI protocol based SRB assay relative to control; format: functional; settings: read-out: GI
SK-OV-3 = assay: Antiproliferative activity against human SK-OV-3 cells assessed as growth inhibition at 10 uM measured after 48 hrs by NCI protocol based SRB assay relative to control; format: functional; settings: read-out: GI
HCC 2998 = assay: Antiproliferative activity against human HCC 2998 cells assessed as growth inhibition at 10 uM measured after 48 hrs by NCI protocol based SRB assay relative to control; format: functional; settings: read-out: GI
OVCAR-5 = assay: Antiproliferative activity against human OVCAR-5 cells assessed as growth inhibition at 10 uM measured after 48 hrs by NCI protocol based SRB assay relative to control; format: functional; settings: read-out: GI
SNB-19 [8] = assay: Antiproliferative activity against human SNB-19 cells assessed as growth inhibition measured after 48 hrs by NCI protocol based SRB assay; format: functional
UACC-62 = assay: Antiproliferative activity against human UACC-62 cells assessed as growth inhibition measured after 48 hrs by NCI protocol based SRB assay; format: functional
NCI/ADR-RES [9] = assay: Antiproliferative activity against human NCl/ADR-RES cells assessed as growth inhibition measured after 48 hrs by NCI protocol based SRB assay; format: functional
ACHN = assay: Antiproliferative activity against human ACHN cells assessed as growth inhibition measured after 48 hrs by NCI protocol based SRB assay; format: functional
TK-10 [10] = assay: Antiproliferative activity against human TK-10 cells assessed as growth inhibition measured after 48 hrs by NCI protocol based SRB assay; format: functional
SNB-19 [11] = assay: Cytostatic activity in human SNB-19 cells assessed as tumor growth inhibition measured after 48 hrs by NCI protocol based SRB assay; format: functional
SK-MEL-2 [12] = assay: Cytostatic activity in human SK-MEL-2 cells assessed as tumor growth inhibition measured after 48 hrs by NCI protocol based SRB assay; format: functional
[13] = read-out: LC50 (the source's name)

SMILES | IC50 (K562) | inhibition of growth at 10 µM (CCRF-CEM [2]) | inhibition of growth at 10 µM (HOP-92) | inhibition of growth at 10 µM (EKVX) | inhibition of growth at 10 µM (NCI-H322M) | inhibition of growth at 10 µM (NCI-H226) | inhibition of growth at 10 µM (NCI-H23) | inhibition of growth at 10 µM (HCT-15) | inhibition of growth at 10 µM (SW-620) | inhibition of growth at 10 µM (SNB-75) | inhibition of growth at 10 µM (U-251) | inhibition of growth at 10 µM (M14) | inhibition of growth at 10 µM (IGROV-1) | inhibition of growth at 10 µM (OVCAR-8) | inhibition of growth at 10 µM (NCI/ADR-RES [4]) | inhibition of growth at 10 µM (TK-10 [5]) | inhibition of growth at 10 µM (PC-3) | inhibition of growth at 10 µM (T47D) | inhibition of growth at 10 µM (Hs-578T) | IC50 (CCRF-CEM [6]) | also measured
Cc1ccc(-c2nc3c(c(-c4ccccc4)nn3-c3ccccc3)c(-c3ccc(O)cc3)c2C#N)cc1 | 8.8 µM | 61% | 26% | 26% | 12% | 21% | 33% | 72% | 38% | 60% | 59% | 40% | 18% | 31% | 19% | 62% | 66% | 39% | 77% | 13.4 µM | IC50 (ML-2): 1.4 µM; IC50 (RS4-11 [1]): 2.7 µM; inhibition of growth at 10 µM (LOX IMVI): 88%; inhibition of growth at 10 µM (SK-MEL-2 [3]): 22%; IC50 (KOPN-8): 0.3 µM; Activity (RS4-11 [7]): Active
N#Cc1c(-c2ccco2)nc2c(c(-c3ccccc3)nn2-c2ccccc2)c1-c1ccc(O)cc1 | 4.2 µM | 59% | 24% | 44% | 19% | 27% |  | 62% | 53% | 29% | 39% | 35% | 16% | 45% | 24% | 11% | 77% | 82% | 47% | 23.9 µM | IC50 (ML-2): 12.8 µM; IC50 (RS4-11 [1]): 15.1 µM; inhibition of growth at 10 µM (SR): 81%; inhibition of growth at 10 µM (HT-29): 70%; inhibition of growth at 10 µM (SK-MEL-2 [3]): 30%; inhibition of growth at 10 µM (SK-OV-3): 54%; IC50 (KOPN-8): 10 µM
COc1cc(-c2c(C#N)c(-c3ccccc3)nc3c2c(-c2ccccc2)nn3-c2ccccc2)ccc1O | > 50 µM | 31% | 22% | 18% | 17% | 24% | 26% | 30% | 22% | 20% | 31% | 19% | 13% | 28% | 22% | 42% | 49% | 39% | 32% | > 50 µM | inhibition of growth at 10 µM (LOX IMVI): 26%
N#Cc1c(-c2ccccc2)nc2c(c(-c3ccccc3)nn2-c2ccccc2)c1-c1ccc(O)cc1 | 9.6 µM | 78% | 50% | 55% | 34% | 46% | 56% | 66% | 84% | 67% | 76% | 44% | 29% | 45% | 30% | 79% | 96% | 65% | 85% | 33.4 µM | inhibition of growth at 10 µM (HCC 2998): 28%; inhibition of growth at 10 µM (HT-29): 16%; inhibition of growth at 10 µM (LOX IMVI): 148%; inhibition of growth at 10 µM (SK-MEL-2 [3]): 28%; inhibition of growth at 10 µM (OVCAR-5): 19%; inhibition of growth at 10 µM (SK-OV-3): 29%; GI50 (SNB-19 [8]): 1.9 µM; CC50 (SNB-19 [8]; [13]): 7.57 µM; GI50 (UACC-62): 1.7 µM; CC50 (UACC-62; [13]): 5.93 µM; GI50 (NCI/ADR-RES [9]): 2.27 µM; CC50 (NCI/ADR-RES [9]; [13]): 2.95 µM; GI50 (ACHN): 2.24 µM; CC50 (ACHN; [13]): 20.5 µM; GI50 (TK-10 [10]): 2.89 µM; CC50 (TK-10 [10]; [13]): > 100 µM; TGI (SNB-19 [11]): 3.8 µM; TGI (SK-MEL-2 [12]): 5.65 µM
N#Cc1c(-c2ccc(Cl)cc2)nc2c(c(-c3ccccc3)nn2-c2ccccc2)c1-c1ccc(O)cc1 | 20.8 µM | 73% | 44% | 33% | 30% | 35% | 52% | 73% | 46% | 58% | 67% | 62% | 31% | 51% | 43% | 83% | 89% | 45% | 74% | 43.1 µM | inhibition of growth at 10 µM (HCC 2998): 16%; inhibition of growth at 10 µM (LOX IMVI): 74%; inhibition of growth at 10 µM (SK-MEL-2 [3]): 26%; inhibition of growth at 10 µM (OVCAR-5): 17%
